Patent US12358919B2, “Antibacterial compounds” (Universita' degli Studi di Siena, priority 2019, dated 2025)
Read-outs that look alike come from different tables or passages of the source. Where a SMILES comes first, the peptide text is derived from it. Bridges are numbered along the chain shown (N, C = ends). [ ]: non-standard residue; d: D form. The star is where a group is joined. X1 = CC[C@H](C)CCCCC(=O)*; Dab = NCC[C@H](N)C(=O)O

Experiments:
[1] = test system: Escherichia coli CCUG^T; assay: microbe, parasite or virus in culture; type: cell-based; settings: for Potentiation fold: ratio MICcompound/MICcompound+polymyxin E; for MIC in presence of colistin: with 0.25xMIC polymyxin E1 (0.12 mg/L); for MIC: Escherichia coli
Experimental: (§1) Growth inhibition or killing of bacteria was investigated using conventional methods widely described in the scientific literature. Parameters such as the Minimum Inhibitory Concentration (MIC) were determined as described in Clinical Laboratory Standard Institute (CLSI) document M07 “Methods for Dilution Antimicrobial Susceptibility Tests for Bacteria That Grow Aerobically, 11th Edition” (2018). Synergistic activity of the compounds described in the present specification were determined by measuring the variation of the MIC's compound in the absence and presence of a sub-inhibitory concentration of a suitable antibacterial agent, such as polymyxin E1. Furthermore, the Fractional Inhibitory Concentrations (FICs) were measured using a chequerboard analysis to determine the average FIC index (FICI), whose value is known to characterize the interaction between two compounds and/or drugs (≤0.5, synergistic interaction; >0.5 and <2, no interaction, additive effect; ≥2, antagonistic interaction). Furthermore, the selectivity of the compounds was investigated by measuring their cytotoxic effect on mammalian cell lines (e.g. HeLa cells).
(§2) Several methods were used to investigate the synergistic activity of the compounds, including (a) the determination of the MIC in the presence of a sub-inhibitory concentration of a suitable antibacterial agent, (b) the determination of the average FICI using a chequerboard analysis and (c) the time-kill curve analysis of a suitable agent (at a sub-inhibitory concentration) in the absence and presence of the pyrazolo[4,3-b]pyridin-6-carboxamide compound at a fixed concentration of 2 or 8 mg/L.
(§3) The MIC of the compound was determined alone and in the presence of a fixed and sub-inhibitory concentration of a suitable antibacterial agent of the polymyxin class, such as polymyxin E1 (colistin). The potentiation fold was computed as the ratio MICcompound/MICcompound+polymyxin E. Tested organisms included Escherichia coli CCUG^TKlebsiella pneumoniae ATCC 13833 and Acinetobacter baumannii ATCC 17978, which show a colistin MIC of 0.5, 0.5 and 1 mg/L, respectively.

[2] = test system: Klebsiella pneumoniae ATCC 13833; assay: microbe, parasite or virus in culture; type: cell-based; settings: for Potentiation fold: ratio MICcompound/MICcompound+polymyxin E; for MIC in presence of colistin: with 0.25xMIC polymyxin E1 (0.12 mg/L); for MIC: Klebsiella pneumoniae, ATCC13833
Experimental: as §1, §2, §3

[3] = test system: Acinetobacter baumannii ATCC 17978; assay: microbe, parasite or virus in culture; type: cell-based; settings: for Potentiation fold: ratio MICcompound/MICcompound+polymyxin E; for MIC in presence of colistin: with 0.25xMIC polymyxin E1 (0.25 mg/L); for MIC: Acinetobacter baumannii, ATCC17978
Experimental: as §1, §2, §3

[4] = test system: K. pneumoniae ATCC 13833; assay: Chequerboard analysis with polymyxin E1 (average FIC index); type: cell-based, Klebsiella pneumoniae; settings: compound + polymyxin E1
[5] = test system: E. coli CCUG^T; assay: as above; type: cell-based, Escherichia coli; settings: compound + polymyxin E1
[6] = test system: Bacillus subtilis ATCC 6633; assay: MIC, broth microdilution (direct antibacterial activity); type: cell-based
Experimental: as §1
(§4) The MIC values were determined using the broth microdilution method as described in document M07 using Mueller-Hinton broth as culture medium and an initial bacterial inoculum size of 5×10^5 CFU/mL, with a final volume of 100 μL per well in a 96-well microplate. Bacterial strains were Bacillus subtilis ATCC 6633, Enterococcus faecalis ATCC 29212, Streptococcus pyogenes ATCC 12344 and Staphylococcus aureus ATCC 25923. The tested compound concentration ranged from 512 to 0.25 mg/L. Plates were incubated for 18-24 hours at 35±2° C. prior to results analysis.

[7] = test system: Staphylococcus aureus ATCC 25923; assay: as above; type: cell-based
Experimental: as §1, §4

[8] = test system: Streptococcus pyogenes ATCC 12344; assay: as above; type: cell-based
Experimental: as §1, §4

[9] = test system: Enterococcus faecalis ATCC 29212; assay: as above; type: cell-based
Experimental: as §1, §4

[10] = test system: K. pneumoniae SI-4B; assay: Chequerboard analysis with polymyxin E1 (average FIC index); type: cell-based, Klebsiella pneumoniae; settings: K. pneumoniae SI-4B (colistin-resistant); compound + polymyxin E1
[11] = test system: A. baumannii ATCC 17978; assay: as above; type: cell-based, Acinetobacter baumannii; settings: compound + polymyxin E1
[12] = test system: polymyxin E1-resistant Acinetobacter baumannii (strain N50) clinical isolate; type: cell-based; settings: A. baumannii N50; colistin alone
Experimental: as §1
“Chequerboard” method was used to further investigate the synergistic activity of pyrazolo[4,3-b]pyridin-6-carboxamides when this compounds are combined with polymyxin E1. […]

[13] = test system: Acinetobacter baumannii (N50 strain), multidrug-resistant clinical isolate resistant to polymyxin E1; assay: Time-kill curve analysis (bactericidal activity); type: cell-based; settings: polymyxin E1 2 mg/L alone; inoculum 10^5 CFU/mL
Experimental: FIG. 1: bactericidal activity on Acinetobacter baumannii (N50 strain) of polymyxin E1, 2 mg/L (square); polymyxin E1, 2 mg/L+compound Ib 32 mg/L (triangles); control (circles).
as §2
The kinetics of bacterial killing offers an additional mean to characterize the antibacterial activity of compounds, also in combination with other antimicrobial agents. Compounds or a combination thereof are defined as bactericides when the viable bacterial load is decreased by at least 3 log10 (EUCAST, cit.).
This analysis was carried with a multidrug-resistant Acinetobacter baumannii clinical isolate showing resistance to polymyxin E1. The time-kill curves were generated starting from a bacterial inoculum of 10^5 CFU/mL. Bacterial count was determined at several time intervals in the absence (control) or presence of 2 mg/L polymyxin E1 (corresponding to the resistance breakpoint, EUCAST, cit.) supplemented with 32 mg/L of compound Ib (FIG. 1).

[14] = E. coli CCUG^T, compound alone, read-out: MIC
[15] = K. pneumoniae ATCC 13833, compound alone, read-out: MIC
[16] = A. baumannii ATCC 17978, compound alone, read-out: MIC
[17] = ATCC6633, B. subtilis ATCC 6633, compound alone, 18-24 h, read-out: MIC
[18] = ATCC25923, S. aureus ATCC 25923, compound alone, 18-24 h, read-out: MIC
[19] = ATCC12344, S. pyogenes ATCC 12344, compound alone, 18-24 h, read-out: MIC
[20] = ATCC29212, E. faecalis ATCC 29212, compound alone, 18-24 h, read-out: MIC

| Compound | Potentiation fold ([1]; E. coli CCUG^T) | MIC in presence of colistin ([1]; E. coli CCUG^T) [mg/L] | Potentiation fold ([2]; K. pneumoniae ATCC 13833) | MIC in presence of colistin ([2]; K. pneumoniae ATCC 13833) [mg/L] | Potentiation fold ([3]; A. baumannii ATCC 17978) | MIC in presence of colistin ([3]; A. baumannii ATCC 17978) [mg/L] | Average FIC index [4] | MIC [1, 14] [µg/mL] | MIC [2, 15] [µg/mL] | MIC [3, 16] [µg/mL] | MIC [6, 17] [µg/mL] | MIC [7, 18] [µg/mL] | MIC [8, 19] [µg/mL] | MIC [9, 20] [µg/mL] | further results |
| --- | --- | --- | --- | --- | --- | --- | --- | --- | --- | --- | --- | --- | --- | --- | --- |
| CCCCCn1c(=O)c(C(=O)NC23CC4CC(CC(C4)C2)C3)c(O)c2nn(CCO)cc21 [In, N-(Adamantan-1-yl)-4,5-dihydro-7-hydroxy-2-(2-hydroxyethyl)-5-oxo-4-(1-pentyl)-2H-pyrazolo[4,3-b]pyridin-6-carboxamide] | ≥8 | 64 | ≥32 | 16 | ≥16 | 32 | 0.32 | – | – | – | – | – | – | – | MIC [1]: > 512 µg/mL; MIC [2]: > 512 µg/mL; MIC [3]: > 512 µg/mL |
| CCCCn1c2c(c(O)c(C(=O)NC34CC5CC(CC(C5)C3)C4)c1=O)N(CCO)NC2 [Ip, N-(Adamantan-1-yl)-4-(1-butyl)-4,5-dihydro-7-hydroxy-1-(2-hydroxyethyl)-5-oxo-2H-pyrazolo[4,3-b]pyridin-6-carboxamide] | ≥16 | 32 | ≥32 | 16 | ≥16 | 32 | 0.32 | > 512 | > 512 | > 512 | – | – | – | – | Average FIC index [5]: 0.33 |
| CCCCn1c(=O)c(C(=O)NC2CCCCCCC2)c(O)c2nn(C)cc21 [Is, 4-(1-Butyl)-N-cyclooctyl-4,5-dihydro-7-hydroxy-2-methyl-5-oxo-2H-pyrazolo[4,3-b]pyridin-6-carboxamide] | ≥16 | 32 | ≥16 | 32 | ≥16 | 32 | – | > 512 | > 512 | > 512 | 32 | 32 | 32 | 512 | – |
| CCCCn1c(=O)c(C(=O)NC2CCCc3ccccc32)c(O)c2nn(C)cc21 (stereo not drawn) [It, 4-(1-Butyl)-4,5-dihydro-7-hydroxy-2-methyl-5-oxo-N-(1,2,3,4-tetrahydro-1-naphthyl)-2H-pyrazolo[4,3-b]pyridin-6-carboxamide] | ≥16 | 32 | ≥32 | 16 | ≥32 | 16 | – | > 512 | > 512 | > 512 | 32 | 32 | 64 | 64 | – |
| CC(C)n1c(=O)c(C(=O)NC23CC4CC(CC(C4)C2)C3)c(O)c2nn(C)cc21 [Ix, N-(Adamantan-1-yl)-4,5-dihydro-7-hydroxy-2-methyl-5-oxo-4-(2-propyl)-2H-pyrazolo[4,3-b]pyridin-6-carboxamide] | ≥64 | 8 | ≥64 | 8 | ≥64 | 8 | 0.33 | – | – | – | – | – | – | – | MIC ([6]; ATCC6633): 64 µg/mL; MIC ([7]; ATCC25923): 128 µg/mL; MIC ([8]; ATCC12344): 32 µg/mL; MIC ([9]; ATCC29212): 32 µg/mL; Average FIC index [10]: 0.39; MIC [1]: > 512 µg/mL; MIC [2]: > 512 µg/mL; MIC [3]: > 512 µg/mL; Average FIC index [11]: 0.27 |
| CC(C)n1c(=O)c(C(=O)NC2CCCCCCC2)c(O)c2nn(C)cc21 [Iz, N-Cyclooctyl-4,5-dihydro-7-hydroxy-2-methyl-5-oxo-4-(2-propyl)-2H-pyrazolo[4,3-b]pyridin-6-carboxamide] | ≥64 | 8 | ≥32 | 16 | ≥64 | 8 | – | > 512 | > 512 | > 512 | 32 | 32 | 16 | 64 | – |
| CC[C@H](C)CCCCC(=O)N[C@@H](CCN)C(=O)N[C@H](C(=O)N[C@@H](CCN)C(=O)N[C@H]1CCNC(=O)[C@H]([C@@H](C)O)NC(=O)[C@H](CCN)NC(=O)[C@H](CCN)NC(=O)[C@H](CC(C)C)NC(=O)[C@@H](CC(C)C)NC(=O)[C@H](CCN)NC1=O)[C@@H](C)O [colistin, polymyxin E1, reference compound] (X1-[Dab]T[Dab][Dab][Dab][dL]L[Dab][Dab]T; lactam 4-C (inferred); N-terminus assumed) | – | – | – | – | – | – | – | – | – | – | – | – | – | – | MIC Colistin [12]: 8 mg/L; bactericidal activity (killing of the bacterial population) [13]: unable to achieve complete and irreversible killing of the bacterial population; colistin MIC ([1]; Escherichia coli CCUG^T, colistin alone): 0.5 mg/L; colistin MIC ([2]; Klebsiella pneumoniae ATCC 13833, colistin alone): 0.5 mg/L; colistin MIC ([3]; Acinetobacter baumannii ATCC 17978, colistin alone): 1 mg/L |
